Results reported in patent US20080318943A1, “Compounds and Uses Thereof - 848” (ASTRAZENECA AB, priority 2007, published 2008).

Columns and labels:
[1] = biological target: T1, GABAA2 receptors (α2, β3, γ2 receptor subunits transfected into Sf9 cells) (Homo sapiens, UniProt P18507+P47869); assay: GABAA2 Binding Method ([3H]-Flunitrazepam displacement); conditions: [3H]-Flunitrazepam ~2 nM, α2β3γ2 Sf9 membranes, 1 hr at 4° C.
T1 construct: host or cells: Sf9 cells (membranes)
In short: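 Displacement of [3H]-flunitrazepam (~2 nM in assay) from recombinant human α2β3γ2 receptors in Sf9 membranes; 1 h incubation at 4 °C, harvest by filtration. Values reported as percent of control, IC50 and Ki.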

GABAA receptor α2β3γ2 = biological target: T2, GABAA receptor α2β3γ2 (Homo sapiens, UniProt P18507+P47869); assay: Two-electrode voltage-clamp potentiation of GABA EC10 current in Xenopus oocytes, GABAA2; assay type: cell-based; conditions: percentage potentiation of GABA EC10 current divided by that of diazepam
T2 construct: expressed in transfected cells; host or cells: Xenopus laevis oocytes injected with cRNA
T2 sequence (P47869 29-451): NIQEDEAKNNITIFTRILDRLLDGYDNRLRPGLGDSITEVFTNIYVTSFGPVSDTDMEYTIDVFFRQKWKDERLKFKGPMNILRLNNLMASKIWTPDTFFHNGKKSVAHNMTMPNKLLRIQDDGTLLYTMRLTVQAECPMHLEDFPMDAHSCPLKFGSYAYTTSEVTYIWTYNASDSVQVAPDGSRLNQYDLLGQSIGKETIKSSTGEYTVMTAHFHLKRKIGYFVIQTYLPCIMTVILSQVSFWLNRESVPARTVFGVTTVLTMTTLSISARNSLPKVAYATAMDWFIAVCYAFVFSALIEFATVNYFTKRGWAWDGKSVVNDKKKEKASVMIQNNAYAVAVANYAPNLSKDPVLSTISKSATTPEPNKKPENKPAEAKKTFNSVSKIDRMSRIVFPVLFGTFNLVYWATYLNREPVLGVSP
T2 sequence (P28472 26-473 partner): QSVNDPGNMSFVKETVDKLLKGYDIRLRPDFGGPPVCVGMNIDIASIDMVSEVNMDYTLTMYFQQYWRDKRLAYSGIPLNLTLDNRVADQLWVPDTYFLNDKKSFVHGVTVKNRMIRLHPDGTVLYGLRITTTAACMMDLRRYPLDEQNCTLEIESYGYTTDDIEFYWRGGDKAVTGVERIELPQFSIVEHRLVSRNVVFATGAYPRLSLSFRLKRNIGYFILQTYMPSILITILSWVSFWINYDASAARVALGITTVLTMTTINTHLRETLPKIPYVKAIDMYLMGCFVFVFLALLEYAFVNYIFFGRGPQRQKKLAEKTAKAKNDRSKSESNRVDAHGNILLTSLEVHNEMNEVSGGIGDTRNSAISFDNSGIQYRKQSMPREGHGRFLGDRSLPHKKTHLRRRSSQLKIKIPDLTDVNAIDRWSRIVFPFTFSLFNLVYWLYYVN
T2 sequence (P18507 40-475): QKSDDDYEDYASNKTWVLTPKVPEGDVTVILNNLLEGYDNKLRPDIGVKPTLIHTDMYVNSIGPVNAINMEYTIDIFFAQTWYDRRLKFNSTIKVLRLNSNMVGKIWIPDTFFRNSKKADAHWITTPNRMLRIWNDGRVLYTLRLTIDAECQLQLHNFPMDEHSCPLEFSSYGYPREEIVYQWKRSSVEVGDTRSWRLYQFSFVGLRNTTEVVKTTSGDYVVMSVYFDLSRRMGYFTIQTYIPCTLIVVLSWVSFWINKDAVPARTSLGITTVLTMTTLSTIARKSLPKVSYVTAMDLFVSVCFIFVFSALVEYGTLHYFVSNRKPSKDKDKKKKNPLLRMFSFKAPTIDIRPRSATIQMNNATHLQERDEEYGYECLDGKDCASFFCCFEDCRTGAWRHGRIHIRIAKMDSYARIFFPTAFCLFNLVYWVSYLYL
In short: (§1)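 Human GABAA receptors expressed in Xenopus oocytes by cRNA injection (α:β:γ molar ratio ~1:1:10 for α1β2γ2, 1:1:1 for α2β3γ2), recorded 2-10 days later by two-electrode voltage clamp at −60 mV in ND-96, pH 7.5. Modulator preapplied 30 s before GABA at per-oocyte EC10. Peak-current percent potentiation over GABA alone, normalised to diazepam.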

GABAA receptor α1β2γ2 = biological target: T3, GABAA receptor α1β2γ2 (Homo sapiens, UniProt P14867+P18507); assay: Two-electrode voltage-clamp potentiation of GABA EC10 current in Xenopus oocytes, GABAA1; assay type: cell-based; conditions: percentage potentiation of GABA EC10 current divided by that of diazepam
T3 construct: expressed in transfected cells; host or cells: Xenopus laevis oocytes injected with cRNA
T3 sequence (P14867 28-456): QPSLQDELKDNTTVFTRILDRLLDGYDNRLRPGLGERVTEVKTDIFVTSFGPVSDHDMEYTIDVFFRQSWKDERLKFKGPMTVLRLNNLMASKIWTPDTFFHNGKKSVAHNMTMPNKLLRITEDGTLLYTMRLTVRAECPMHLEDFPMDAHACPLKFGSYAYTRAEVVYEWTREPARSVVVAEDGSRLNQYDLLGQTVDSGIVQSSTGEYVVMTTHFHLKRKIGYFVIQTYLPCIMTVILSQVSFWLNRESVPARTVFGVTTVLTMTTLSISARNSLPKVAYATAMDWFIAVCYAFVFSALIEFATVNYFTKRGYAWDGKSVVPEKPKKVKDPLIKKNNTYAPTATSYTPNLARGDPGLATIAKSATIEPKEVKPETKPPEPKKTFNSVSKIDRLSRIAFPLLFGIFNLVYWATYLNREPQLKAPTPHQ
T3 sequence (P47870 25-512 partner limits assumed): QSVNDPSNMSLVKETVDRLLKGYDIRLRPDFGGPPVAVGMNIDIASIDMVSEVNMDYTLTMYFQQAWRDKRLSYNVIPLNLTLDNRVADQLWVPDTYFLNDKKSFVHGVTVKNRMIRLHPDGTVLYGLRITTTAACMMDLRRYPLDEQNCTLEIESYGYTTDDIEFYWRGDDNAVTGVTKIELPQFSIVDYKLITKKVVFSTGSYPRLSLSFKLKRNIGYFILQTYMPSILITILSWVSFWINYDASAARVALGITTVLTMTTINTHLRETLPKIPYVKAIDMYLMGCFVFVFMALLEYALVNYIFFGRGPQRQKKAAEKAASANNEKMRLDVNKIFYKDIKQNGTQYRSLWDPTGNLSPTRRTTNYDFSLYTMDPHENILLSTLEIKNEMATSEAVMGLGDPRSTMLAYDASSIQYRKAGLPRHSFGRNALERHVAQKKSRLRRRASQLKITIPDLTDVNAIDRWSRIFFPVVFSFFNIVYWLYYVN
T3 sequence (P18507 40-475): as the sequence (P18507 40-475) above
In short: as §1

T1 sequence (P47869 29-451): as the sequence (P47869 29-451) above
T1 sequence (P28472 26-473 partner): as the sequence (P28472 26-473 partner) above
T1 sequence (P18507 40-475): as the sequence (P18507 40-475) above

Row | Ki [1] [nM] | Relative Potentiation for GABAA2 (GABAA receptor α2β3γ2) | Relative Potentiation for GABAA1 (GABAA receptor α1β2γ2) | SMILES
1 | 27.4 | 0.17 | 0.054 | CCN1Cc2nc3c(-c4cc(F)ccc4OC)cccc3c(N)c2C1=O [9-Amino-2-ethyl-5-(5-fluoro-2-methoxyphenyl)-2,3-dihydropyrrolo[3,4-b]quinolin-1-one]
2 | 1.4 | 0.17 | 0.005 | CCN1Cc2nc3c(-c4cc(OC)ccc4F)c(F)ccc3c(N)c2C1=O [9-Amino-2-ethyl-6-fluoro-5-(2-fluoro-5-methoxyphenyl)-2,3-dihydropyrrolo[3,4-b]quinolin-1-one]
3 | 3.47 | 0.093 | −0.12 | CCN1Cc2nc3c(-c4c(F)cccc4OC)c(F)ccc3c(N)c2C1=O [9-Amino-2-ethyl-6-fluoro-5-(2-fluoro-6-methoxyphenyl)-2,3-dihydropyrrolo[3,4-b]quinolin-1-one]
4 | 2.01 | 0.094 | −0.0025 | CCN1Cc2nc3c(-c4cnccc4C)c(F)ccc3c(N)c2C1=O [9-Amino-2-ethyl-6-fluoro-5-(4-methylpyridin-3-yl)-2,3-dihydropyrrolo[3,4-b]quinolin-1-one]
5 | 4.84 | 0.11 | 0.072 | CCN1Cc2nc3c(-c4ccc(OC)cc4OC)c(F)ccc3c(N)c2C1=O [9-Amino-5-(2,4-dimethoxy-phenyl)-2-ethyl-6-fluoro-2,3-dihydropyrrolo[3,4-b]quinolin-1-one]
6 | 33.2 | 0.14 | 0.068 | COc1ccc(Cl)c(-c2cccc3c(N)c4c(nc23)CN(C2CC2)C4=O)c1 [9-Amino-5-(2-chloro-5-methoxyphenyl)-2-cyclopropyl-2,3-dihydropyrrolo[3,4-b]quinolin-1-one]
7 | 32.5 | 0.11 | 0.09 | COc1cccc(-c2cccc3c(N)c4c(nc23)CN(C)C4=O)c1F [9-Amino-5-(2-fluoro-3-methoxyphenyl)-2-methyl-2,3-dihydropyrrolo[3,4-b]quinolin-1-one]
8 | 3.75 | 0.36 | 0.11 | COc1cccc(F)c1-c1cccc2c(N)c3c(nc12)CN(C1CC(C)C1)C3=O (stereo not drawn) [9-Amino-5-(2-fluoro-6-methoxyphenyl)-2-(3-methylcyclobutyl)-2,3-dihydropyrrolo[3,4-b]quinolin-1-one]
9 | 26.8 | 0.15 | −0.16 | COc1cccc(F)c1-c1cccc2c(N)c3c(nc12)CN(C(C)C)C3=O [9-Amino-5-(2-fluoro-6-methoxyphenyl)-2-isopropyl-2,3-dihydropyrrolo[3,4-b]quinolin-1-one]
10 | 2.22 | 0.27 | 0.033 | CCN1Cc2nc3c(-c4cc(Cl)ccc4OC)c(F)ccc3c(N)c2C1=O [9-Amino-5-(5-chloro-2-methoxyphenyl)-2-ethyl-6-fluoro-2,3-dihydropyrrolo[3,4-b]quinolin-1-one]
11 | 8.14 | 0.088 | −0.02 | COc1cccc(F)c1-c1c(F)ccc2c(N)c3c(nc12)CN(C)C3=O [9-Amino-6-fluoro-5-(2-fluoro-6-methoxyphenyl)-2-methyl-2,3-dihydropyrrolo[3,4-b]quinolin-1-one]
12 | 1.5 | 0.37 | 0.23 | COc1ccc(CN2Cc3nc4c(-c5cnccc5OC)cccc4c(N)c3C2=O)cc1OC [9-amino-2-(3,4-dimethoxybenzyl)-5-(4-methoxypyridin-3-yl)-2,3-dihydro-1H-pyrrolo[3,4-b]quinolin-1-one]
13 | 3.35 | 0.52 | 0.32 | COc1ccc(CN2Cc3nc4c(-c5cnccc5OC)cccc4c(N)c3C2=O)cc1 [9-amino-2-(4-methoxybenzyl)-5-(4-methoxypyridin-3-yl)-2,3-dihydro-1H-pyrrolo[3,4-b]quinolin-1-one]
14 | 23.9 | 0.025 | −0.07 | Cc1cccc(C)c1-c1cccc2c(N)c3c(nc12)CN(C1CC1)C3=O [9-amino-2-cyclopropyl-5-(2,6-dimethylphenyl)-2,3-dihydro-1H-pyrrolo[3,4-b]quinolin-1-one]
15 | 55.3 | 0.08 | 0.088 | COc1ncc(-c2cccc3c(N)c4c(nc23)CN(C2CC2)C4=O)cc1C [9-amino-2-cyclopropyl-5-(6-methoxy-5-methylpyridin-3-yl)-2,3-dihydro-1H-pyrrolo[3,4-b]quinolin-1-one]
16 | 7.27 | 0.055 | −0.036 | COc1ccc(-c2c(F)ccc3c(N)c4c(nc23)CN(C2CC2)C4=O)c(F)c1 [9-amino-2-cyclopropyl-6-fluoro-5-(2-fluoro-4-methoxyphenyl)-2,3-dihydro-1H-pyrrolo[3,4-b]quinolin-1-one]
17 | 7.14 | 0.036 | −0.008 | CCN1Cc2nc3c(-c4ccc(OC)cc4F)cccc3c(N)c2C1=O [9-amino-2-ethyl-5-(2-fluoro-4-methoxyphenyl)-2,3-dihydro-1H-pyrrolo[3,4-b]quinolin-1-one]
18 | 22.6 | 0.068 | 0.052 | CCN1Cc2nc3c(-c4cccc(F)c4OC)cccc3c(N)c2C1=O [9-amino-2-ethyl-5-(3-fluoro-2-methoxyphenyl)-2,3-dihydro-1H-pyrrolo[3,4-b]quinolin-1-one]
19 | 42.5 | 0.065 | 0.012 | CCN1Cc2nc3c(-c4ccc(OC)c(F)c4)cccc3c(N)c2C1=O [9-amino-2-ethyl-5-(3-fluoro-4-methoxyphenyl)-2,3-dihydro-1H-pyrrolo[3,4-b]quinolin-1-one]
20 | 1.49 | 0.05 | −0.04 | CCN1Cc2nc3c(-c4ccc(OC)cc4F)c(F)ccc3c(N)c2C1=O [9-amino-2-ethyl-6-fluoro-5-(2-fluoro-4-methoxyphenyl)-2,3-dihydro-1H-pyrrolo[3,4-b]quinolin-1-one]
21 | 1.51 | 0.038 | −0.04 | CCN1Cc2nc3c(-c4ccccc4F)c(F)ccc3c(N)c2C1=O [9-amino-2-ethyl-6-fluoro-5-(2-fluorophenyl)-2,3-dihydro-1H-pyrrolo[3,4-b]quinolin-1-one]
22 | 44.6 | 0.29 | 0.38 | CCCN1Cc2nc3c(-c4cccc(C)c4)cccc3c(N)c2C1=O [9-amino-2-propyl-5-(3-methylphenyl)-2,3-dihydro-1H-pyrrolo[3,4-b]quinolin-1-one]
23 | 10.3 | 0.64 | 0.45 | COc1ccc(CN2Cc3nc4c(-c5cc(C)nn5C)cccc4c(N)c3C2=O)cc1 [9-amino-5-(1,3-dimethyl-1H-pyrazol-5-yl)-2-(4-methoxybenzyl)-2,3-dihydro-1H-pyrrolo[3,4-b]quinolin-1-one]
24 | 21.5 | 0.57 | 0.49 | CCCN1Cc2nc3c(-c4cc(C)nn4C)cccc3c(N)c2C1=O [9-amino-5-(1,3-dimethyl-1H-pyrazol-5-yl)-2-propyl-2,3-dihydro-1H-pyrrolo[3,4-b]quinolin-1-one]
25 | 3.85 | 0.064 | −0.038 | CCN1Cc2nc3c(-c4ccc(F)cc4F)c(F)ccc3c(N)c2C1=O [9-amino-5-(2,4-difluorophenyl)-2-ethyl-6-fluoro-2,3-dihydro-1H-pyrrolo[3,4-b]quinolin-1-one]
26 | 49.8 | 0.31 | 0.25 | CCCN1Cc2nc3c(-c4ccc(OC)cc4OC)cccc3c(N)c2C1=O [9-amino-5-(2,4-dimethoxyphenyl)-2-propyl-2,3-dihydro-1H-pyrrolo[3,4-b]quinolin-1-one]
27 | 11.8 | 0.32 | 0.31 | CCCN1Cc2nc3c(-c4cc(Cl)ccc4Cl)cccc3c(N)c2C1=O [9-amino-5-(2,5-dichlorophenyl)-2-propyl-2,3-dihydro-1H-pyrrolo[3,4-b]quinolin-1-one]
28 | 34.8 | 0.33 | 0.21 | CCCN1Cc2nc3c(-c4cc(F)ccc4F)cccc3c(N)c2C1=O [9-amino-5-(2,5-difluorophenyl)-2-propyl-2,3-dihydro-1H-pyrrolo[3,4-b]quinolin-1-one]

Row | SMILES | Ki [1] [nM] | Relative Potentiation for GABAA2 (GABAA receptor α2β3γ2) | Relative Potentiation for GABAA1 (GABAA receptor α1β2γ2)
29 | COc1ncc(-c2cccc3c(N)c4c(nc23)CN(Cc2ccc(OC)c(OC)c2)C4=O)c(OC)n1 [9-amino-2-(3,4-dimethoxybenzyl)-5-(2,4-dimethoxypyrimidin-5-yl)-2,3-dihydro-1H-pyrrolo[3,4-b]quinolin-1-one] | 13.5 | 0.42 | 0.19
